According to publication PMC6131351, “Pharmacological difference between degrader and inhibitor against oncogenic BCR-ABL kinase” (Scientific Reports, 2018):

Columns and labels:
Jurkat cells = experiment: WST cell growth inhibition, Jurkat (BCR-ABL negative); assay type: cell-based; settings: Homo sapiens, 48 h, WST assay, means ± SD (n = 3)
cIAP1 (BIR3) = molecular target: T1, cIAP1 (BIR3) (Homo sapiens, UniProt Q13490); experiment: TR-FRET IAP/Smac peptide interaction assay, cIAP1; settings: FITC-Smac probe, read-out: Binding affinity IC50 cIAP1
T1 construct: human cIAP1 (BIR3, Leu250-Gly350); made in house; host or cells: E. coli
T1 sequence (Q13490 250-350): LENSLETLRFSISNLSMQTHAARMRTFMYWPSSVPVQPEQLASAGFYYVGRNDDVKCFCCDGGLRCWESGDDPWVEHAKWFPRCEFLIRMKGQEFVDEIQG
Procedure: (§1) The TR-FRET assay was carried out using 384-well white flat-bottom plates (Greiner Bio-One) and the signal was measured using an EnVision Multilabel Plate Reader (PerkinElmer, Waltham, MA, USA). The solution in each well was excited with a laser (λ = 337 nm) reflected by a dichroic mirror (D400/D505 (Perkin Elmer) and fluorescence from terbium (Tb) and BODIPY or FITC was detected through two emission filters (CFP 486 (Perkin Elmer) for Tb and Emission 515 (Perkin Elmer) for BODIPY and FITC). The assay buffer used in this study was composed of 50 mM HEPES (pH 7.2–7.5), 10 mM MgCl2, 1 mM EGTA, 0.1 mM DTT and 0.01% (v/v) Brij^(R) 35. All assays were carried out at room temperature in triplicate or quadruplicate formats.
(§2) The half maximal inhibitory concentration (IC50) of test compounds was calculated by fitting the data with the logistic equation using GraphPad Prism 5 (GraphPad Software, Inc., La Jolla, CA, USA) or XLfit (IDBS, Guildford, UK).
(§3) His-IAP proteins (XIAP, cIAP1 or cIAP2), FITC-Smac, Tb-SA and the biotinylated anti-His antibody (Life Technologies) were mixed in the assay buffer and incubated for over 1 h at room temperature before addition to the assay plate. […] After 1 h incubation at room temperature, the TR-FRET signal was measured using the EnVision Multilabel Plate Reader. […]

[1] = system: phosphorylation of BCR-ABL, STAT5 and CrkL; experiment: Downstream kinase signaling (phosphorylation) by western blot in K562 cells; assay type: cell-based, Human
Procedure: (§4) Cells were collected and lysed in a lysis buffer (0.5% Triton X-100, 0.01 M Tris-HCl (pH 7.5), 0.15 M NaCl, Complete Mini protease inhibitor cocktail (Roche Applied Science, Indianapolis, IL, USA) and PhosStop phosphatase inhibitor cocktail (Roche Applied Science)). Protein concentrations were measured by the BCA method (Thermo Fisher Scientific) and an equal amount of protein lysate was separated by SDS-PAGE, transferred to polyvinylidene difluoride membranes (Merck Millipore) and analyzed by western blot using an appropriate antibody. The immunoreactive proteins were visualized using Clarity Western ECL substrate (Bio-Rad, Hercules, CA, USA) and their light emission was quantified with a LAS-3000 lumino-image analyzer (Fuji, Tokyo, Japan). The following antibodies were used: anti-cAbl rabbit polyclonal antibody (pAb) (#2862), anti-XIAP rabbit pAb (#2042), anti-phospho-cAbl rabbit pAb (#3009), anti-STAT5 rabbit pAb (#9363), anti-phospho-STAT5 rabbit pAb (#9359), anti-CrkL mouse monoclonal antibody (mAb) (#3182) and anti-phospho-CrkL rabbit pAb (#3181), anti-PARP rabbit pAb (#9532), and anti-cleaved Caspase 3 rabbit pAb (#9664) (Cell Signaling Technology, Danvers, MA, USA); anti-β-tubulin (ab6046) rabbit pAb (Abcam, Cambridge, UK) and anti-GAPDH rabbit pAb (sc-25778 HRP) (Santa Cruz, Dallas, TX, USA); anti-cIAP1 goat pAb (AF8181) (R&D systems).
(§5) Cells were seeded at a concentration of 2 × 10^6 cells per 10-cm tissue culture dish and treated with the indicated compounds for the indicated times. Then, the cells were washed three times to remove the compounds, and incubated in drug-free medium for the indicated times.

XIAP (BIR3) = molecular target: T2, XIAP (BIR3) (Homo sapiens, UniProt P98170); experiment: TR-FRET IAP/Smac peptide interaction assay, XIAP; settings: FITC-Smac probe, read-out: Binding affinity IC50 XIAP
T2 construct: human XIAP (BIR3, Asn252-Thr356, 895-XB-050); purchased R&D Systems 895-XB-050
T2 sequence (P98170 252-356): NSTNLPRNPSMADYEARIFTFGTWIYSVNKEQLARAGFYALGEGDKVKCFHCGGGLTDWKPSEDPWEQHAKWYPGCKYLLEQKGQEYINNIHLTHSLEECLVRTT
Procedure: as §1, §2, §3

[2] = system: caspase 3 activation and PARP cleavage; experiment: Caspase activation and PARP cleavage after drug removal in K562 cells; assay type: cell-based, Human; settings: K562, 50 times IC50 for 12 h, drug removal for 24 h
Procedure: as §4, §5

K562 cells = experiment: Washout experiment, cell counting of K562 cells; assay type: cell-based, Human; settings: washed; for growth of K562 cells after drug removal: 25 or 50 times IC50 for 12 h, drug-free medium for 6 d
Procedure: as §5

BCR-ABL protein = molecular target: T3, BCR-ABL protein (Homo sapiens, UniProt P00519+P11274); experiment: Washout experiment, BCR-ABL protein level by western blot in K562 cells; assay type: cell-based; settings: K562, 50 times IC50 for 12 h, BCR-ABL/β-tubulin
T3 construct: examined for their activity to degrade BCR-ABL in K562 cells for 6 h; BCR (fusion partner, P11274, N-terminal part); endogenous in cells; host or cells: K562
T3 sequence (P11274+P00519 fused): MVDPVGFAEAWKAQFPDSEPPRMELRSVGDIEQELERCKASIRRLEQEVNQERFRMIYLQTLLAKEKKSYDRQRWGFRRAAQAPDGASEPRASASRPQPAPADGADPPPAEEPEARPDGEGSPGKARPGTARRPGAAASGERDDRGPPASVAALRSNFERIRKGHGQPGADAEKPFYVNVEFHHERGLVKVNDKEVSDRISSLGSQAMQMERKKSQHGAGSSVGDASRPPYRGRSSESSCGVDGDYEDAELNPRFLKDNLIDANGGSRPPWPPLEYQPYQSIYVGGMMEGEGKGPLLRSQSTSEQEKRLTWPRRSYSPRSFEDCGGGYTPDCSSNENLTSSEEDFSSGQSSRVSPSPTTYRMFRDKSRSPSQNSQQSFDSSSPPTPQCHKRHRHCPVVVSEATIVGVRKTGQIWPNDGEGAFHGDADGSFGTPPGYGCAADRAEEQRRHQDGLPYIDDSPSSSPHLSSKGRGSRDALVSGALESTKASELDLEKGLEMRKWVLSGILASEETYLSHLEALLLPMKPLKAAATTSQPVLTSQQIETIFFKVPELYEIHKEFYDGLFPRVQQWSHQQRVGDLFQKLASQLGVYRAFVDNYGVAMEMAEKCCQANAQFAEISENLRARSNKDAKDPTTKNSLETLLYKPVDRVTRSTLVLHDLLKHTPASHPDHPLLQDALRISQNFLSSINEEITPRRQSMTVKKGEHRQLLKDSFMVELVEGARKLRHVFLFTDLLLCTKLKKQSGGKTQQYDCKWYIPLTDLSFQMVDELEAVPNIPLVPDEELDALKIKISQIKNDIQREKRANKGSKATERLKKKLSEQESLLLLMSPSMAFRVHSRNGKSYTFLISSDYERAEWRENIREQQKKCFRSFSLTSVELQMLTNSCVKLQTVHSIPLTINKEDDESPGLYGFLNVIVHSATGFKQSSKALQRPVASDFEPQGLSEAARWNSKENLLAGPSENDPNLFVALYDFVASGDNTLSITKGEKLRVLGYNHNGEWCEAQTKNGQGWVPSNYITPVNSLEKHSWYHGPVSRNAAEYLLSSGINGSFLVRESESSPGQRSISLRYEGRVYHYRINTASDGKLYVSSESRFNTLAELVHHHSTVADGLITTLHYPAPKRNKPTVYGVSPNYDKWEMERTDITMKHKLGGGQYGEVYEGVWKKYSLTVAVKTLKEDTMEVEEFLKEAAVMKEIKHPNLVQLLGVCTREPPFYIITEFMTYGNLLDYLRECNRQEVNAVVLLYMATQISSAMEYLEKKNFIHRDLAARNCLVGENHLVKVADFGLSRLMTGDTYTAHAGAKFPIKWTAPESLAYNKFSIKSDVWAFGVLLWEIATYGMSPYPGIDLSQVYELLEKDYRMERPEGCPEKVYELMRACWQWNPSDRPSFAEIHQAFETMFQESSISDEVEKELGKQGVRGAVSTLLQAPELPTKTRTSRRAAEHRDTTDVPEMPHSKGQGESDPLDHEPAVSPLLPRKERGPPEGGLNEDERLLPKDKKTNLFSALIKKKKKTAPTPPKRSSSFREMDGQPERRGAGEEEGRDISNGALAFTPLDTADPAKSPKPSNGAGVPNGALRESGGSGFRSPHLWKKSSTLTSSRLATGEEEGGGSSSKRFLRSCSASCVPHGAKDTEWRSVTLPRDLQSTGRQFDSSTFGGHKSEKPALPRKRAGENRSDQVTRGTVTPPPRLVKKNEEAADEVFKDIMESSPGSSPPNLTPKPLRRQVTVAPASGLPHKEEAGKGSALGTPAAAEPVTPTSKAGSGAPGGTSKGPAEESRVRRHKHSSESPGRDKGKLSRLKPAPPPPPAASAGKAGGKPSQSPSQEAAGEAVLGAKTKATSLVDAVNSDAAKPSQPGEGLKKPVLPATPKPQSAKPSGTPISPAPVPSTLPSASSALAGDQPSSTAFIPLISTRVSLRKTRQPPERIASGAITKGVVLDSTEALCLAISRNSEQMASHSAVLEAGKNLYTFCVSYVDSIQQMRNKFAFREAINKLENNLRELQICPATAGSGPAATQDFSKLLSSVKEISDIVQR
Procedure: Cells were collected and lysed in a lysis buffer (0.5% Triton X-100, 0.01 M Tris-HCl (pH 7.5), 0.15 M NaCl, Complete Mini protease inhibitor cocktail (Roche Applied Science, Indianapolis, IL, USA) and PhosStop phosphatase inhibitor cocktail (Roche Applied Science)). Protein concentrations were measured by the BCA method (Thermo Fisher Scientific) and an equal amount of protein lysate was separated by SDS-PAGE, transferred to polyvinylidene difluoride membranes (Merck Millipore) and analyzed by western blot using an appropriate antibody. The immunoreactive proteins were visualized using Clarity Western ECL substrate (Bio-Rad, Hercules, CA, USA) and their light emission was quantified with a LAS-3000 lumino-image analyzer (Fuji, Tokyo, Japan).
as §5

[3] = K562, 50 times IC50 for 12 h (time 0)

IC50 (Jurkat cells) [nM]	IC50 (cIAP1 (BIR3)) [nM]	IC50 (XIAP (BIR3)) [nM]	BCR-ABL % of control (BCR-ABL protein; time after washout 0 h)	BCR-ABL % of control (BCR-ABL protein; time after washout 48 h)	BCR-ABL % of control (BCR-ABL protein; time after washout 72 h)	SMILES	phosphorylation of BCR-ABL, STAT5 and CrkL [1, 3]	phosphorylated BCR-ABL, STAT5 and CrkL after drug removal ([1]; K562, 50 times IC50 for 12 h, 48 and 72 h after drug removal)	phosphorylation of BCR-ABL, STAT5 and CrkL ([1]; K562 cells, 6 h)	caspase 3 activation and PARP cleavage [2]	growth of K562 cells after drug removal (K562 cells)	K562 cell number after drug removal (K562 cells; 50 times IC50 for 12 h, drug-free medium)
2870 ± 293	10	50	32 % of control	2 % of control	2 % of control	CN[C@@H](C)C(=O)N[C@H](C(=O)N1CCC[C@H]1c1nc(C(=O)c2cccc(OCCOCCOCCOCC(=O)N3CCN(c4cc(Nc5ncc(C(=O)Nc6c(C)cccc6Cl)s5)nc(C)n4)CC3)c2)cs1)C1CCCCC1 [DAS-IAP]	inhibited	remained significantly diminished	suppressed	induced	markedly inhibited the growth	decreased continuously
2440 ± 310	> 1000	> 1000	84 % of control	80 % of control	73 % of control	CN[C@@H](C)C(=O)N(C)[C@H](C(=O)N1CCC[C@H]1c1nc(C(=O)c2cccc(OCCOCCOCCOCC(=O)N3CCN(c4cc(Nc5ncc(C(=O)Nc6c(C)cccc6Cl)s5)nc(C)n4)CC3)c2)cs1)C1CCCCC1 [DAS-meIAP]	inhibited		suppressed	not	slightly delayed the growth	
